Laboratory results reported in patent US7265227B2, “Piperidine derivatives useful as modulators of chemokine receptor activity” (AstraZeneca AB, priority 2001, dated 2007).

Tests used:
H1 = target: T1, H1 (Cavia porcellus, UniProt P31389); test: Guinea-pig isolated trachea (histamine concentration effect curves); details: guinea-pig tracheal rings; histamine E/[A] curve after 60 minutes incubation with test compound
T1 construct: the trachea was cut into six ring segments each three cartilage bands wide and then suspended in 20 ml organ baths; from tissue; host or cells: guinea-pig isolated trachea (Dunkin-Hartley)
Description: Guinea-pig Isolated Trachea
(See for example, Harrison, R. W. S., Carswell, H. & Young, J. M. (1984) European J. Pharmacol., 106, 405-409.)
Male albino Dunkin-Hartley guinea-pigs (250 g) were killed by cervical dislocation and the whole trachea removed. After clearing the adherent connective tissue, the trachea was cut into six ring segments each three cartilage bands wide and then suspended in 20 ml organ baths containing Krebs-Henseleit solution of the following composition (MM): NaCl 117.6, NaH2PO4 0.9, NaHCO3 25.0, MgSO4 1.2, KCl 5.4, CaCl2 2.6 and glucose 11.1. The buffer was maintained at 37° C. and gassed with 5% CO2 in oxygen. Indomethacin (2.8 μM) was added to the Krebs solution to prevent development of smooth muscle tone due to the synthesis of cyclo-oxygenase products. […] Changes in isometric force were recorded on 2-channel Sekonic flat bed chart recorders. […]
Contraction responses were recorded as a percentage of the first curve maximum. […]
Experimental E/[A] curve data were analysed for the purposes of estimating the potencies (p[A50] values) of histamine in the absence and presence of the test compound. Affinity (pA2) values of test compounds were subsequently calculated using the following equation: log(r−1)=log[B]+pA2 where r=[A]50 in presence of test compound/[A]50 in absence of antagonist and [B] is the concentration of test compound.

[1] = test system: eotaxin mediated human eosinophil chemotaxis; test: Human eosinophil chemotaxis; assay type: cell-based; details: human eosinophils from peripheral blood; eotaxin 0.1 to 100 nM; 1 hr at 37° C.
Description: Human Eosinophil Chemotaxis
Human eosinophils were isolated from EDTA anticoagulated peripheral blood as previously described (Hansel et al., J. Immunol. Methods, 1991, 145, 105-110). The cells were resuspended at 10×10^6 ml^−1 in RPMI containing 200 IU/ml penicillin, 200 μg/ml streptomycin sulfate and supplemented with 10% HIFCS, at room temperature.
Eosinophils (700 μl) were pre-incubated for 15 mins at 37° C. with 7 μl of either vehicle or compound (100× required final concentration in 10% DMSO). The chemotaxis plate (ChemoTx, 3μ, pore, Neuroprobe) was loaded by adding 28 μl of a concentration of eotaxin (0.1 to 100 nM) containing a concentration of a compound according to the Examples or solvent to the lower wells of the chemotaxis plate. The filter was then placed over the wells and 25 μl of eosinophil suspension were added to the top of the filter. The plate was incubated for 1 hr at 37° C. in a humidified incubator with a 95% air/5% CO2 atmosphere to allow chemotaxis.
The medium, containing cells that had not migrated, was carefully aspirated from above the filter and discarded. The filter was washed once with phosphate buffered saline (PBS) containing 5 mM EDTA to remove any adherent cells. […] The number of eosinophils migrating was quantified according to the method of Strath et al., J. Immunol. […]

T1 sequence (P31389 whole entry): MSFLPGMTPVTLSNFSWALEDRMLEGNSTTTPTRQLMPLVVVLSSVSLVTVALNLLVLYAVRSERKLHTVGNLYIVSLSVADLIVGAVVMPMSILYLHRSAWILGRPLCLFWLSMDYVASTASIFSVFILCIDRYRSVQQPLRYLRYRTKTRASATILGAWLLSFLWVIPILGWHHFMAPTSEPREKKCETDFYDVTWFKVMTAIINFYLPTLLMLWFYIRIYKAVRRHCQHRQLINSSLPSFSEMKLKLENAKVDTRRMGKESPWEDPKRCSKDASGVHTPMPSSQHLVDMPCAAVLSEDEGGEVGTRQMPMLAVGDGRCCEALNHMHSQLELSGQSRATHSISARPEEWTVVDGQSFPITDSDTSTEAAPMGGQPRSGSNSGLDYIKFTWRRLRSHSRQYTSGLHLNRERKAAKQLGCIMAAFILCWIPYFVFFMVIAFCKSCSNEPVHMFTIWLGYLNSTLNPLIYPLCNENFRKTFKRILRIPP

Cc1ccc(S(=O)(=O)NC(=O)NCCN2CCC(Oc3ccc(Cl)c(Cl)c3)CC2)cc1 [Example 1, N-[[[2-[4-(3,4-dichlorophenoxy)-1-piperidinyl]ethyl]amino]carbonyl]-4-methyl-benzenesulfonamide]
H1 antagonism (H1): H1 antagonist | melting point: 179.6 to 180.3 °C | antagonism of the eotaxin mediated human eosinophil chemotaxis [1]: antagonist

O=C(NS(=O)(=O)NCCCN1CCC(Oc2ccc(Cl)c(Cl)c2)CC1)c1ccccc1 [Example 18, N-benzoyl-N′-[3-[4-(3,4-dichlorophenoxy)-1-piperidinyl]propyl]-sulfamide]
melting point: 93 to 106 °C

O=C(NS(=O)(=O)CCN1CCC(Oc2ccc(Cl)c(Cl)c2)CC1)c1ccccc1Cl [Example 19, N-(2-Chlorobenzoyl)-4-(3,4-dichlorophenoxy)-1-piperidineethanesulfonamide]
melting point: 237 to 239 °C

Cc1ccc(S(=O)(=O)NC(=O)CCN2CCC(Oc3ccc(Cl)c(Cl)c3)CC2)cc1 [Example 20, N-[3-[4-(3,4-dichlorophenoxy)-1-piperidinyl]-1-oxopropyl]4-methyl-benzenesulfonamide]
melting point: 177 to 179 °C
